Data reported in ChEMBL document CHEMBL5528050, “Discovery of a Novel Series of Homo sapiens Caseinolytic Protease P Agonists for Colorectal Adenocarcinoma Treatment via ATF3-Dependent Integrated Stress Response” (J Med Chem, 2024).
pIC50: −log10 of the molar value. Active and inactive are the calls of the source. No cut-off for these calls is given here.

Columns and labels:
[1] = Metabolic stability in human liver microsomes assessed as intrinsic clearance at 1 uM measured upto 60 mins in presence of NADPH regenerating system by LC-MS/MS analysis; type: ADME, Microsome; settings: read-out: CLH
[2] = tested on: HCT-116; assay: Induction of apoptosis in human HCT-116 cells assessed as downregulation of bcl-2 expression at 0.5 to 2 uM measured after 48 hrs by Western blot analysis; type: functional, cell-based; settings: dose 0.5-2 µM
[3] = Acute toxicity in BALB/c mouse assessed as survival at 50 mg/kg, iv administered as single dose measured upto 14 days; type: organism-based; settings: in vivo, 336 h, time < 14 day
[4] = tested on: HCT-116; assay: Effect on DDIT3 expression in ClpP knockdown human HCT-116 cells at 2 uM measured after 48 hrs by Western blot analysis; type: functional, cell-based
[5] = Toxicity in BALB/c nude mouse assessed as effect on lung at 1.25 to 5 mg/kg, iv administered twice weekly and measured after 21 days by H and E staining based analysis; type: organism-based; settings: in vivo, 504 h, dose 1.25-5 mg/kg, time 21 day
[6] = Acute toxicity in BALB/c mouse assessed as effect on lung at 50 mg/kg, iv administered as single dose measured upto 14 days by H and E staining based analysis; type: organism-based; settings: in vivo, 336 h, time < 14 day
[7] = tested on: HCT-116; assay: Antitumor activity against human HCT-116 cells xenografted in BALB/c nude mouse model assessed as reduction in tumor volume at 1.25 mg/kg,iv administered twice weekly and measured upto 21 days relative to control; type: functional; set-up: scale not given: the % may be the effect or the level left; settings: time <= 21 day
[8] = Half life in Sprague-Dawley rat at 10 mg/kg, po by LC-MS/MS analysis; type: ADME, organism-based; settings: in vivo
[9] = Metabolic stability in rat liver microsomes assessed as intrinsic clearance at 1 uM measured upto 60 mins in presence of NADPH regenerating system by LC-MS/MS analysis; type: ADME, Microsome; settings: read-out: CLH
[10] = tested on: HCT-116; assay: Upregulation of JUN expression in human HCT-116 cells measured after 48 hrs by Western blot analysis; type: functional, cell-based
[11] = MRT (0 to 12hrs) in Sprague-Dawley rat at 10 mg/kg, po by LC-MS/MS analysis; type: ADME, organism-based; settings: in vivo
[12] = tested on: HCT-116; assay: Induction of apoptosis in human HCT-116 cells assessed as cell death at 2 uM measured after 48 hrs by annexin V-FITC/7-AAD based flow cytometry analysis relative to control; type: functional
[13] = Metabolic stability in rat liver microsomes assessed as half life at 1 uM measured upto 60 mins in presence of NADPH regenerating system by LC-MS/MS analysis; type: ADME, Microsome
[14] = tested on: DLD-1; assay: cells; settings: Homo sapiens, DLD-1, 72 h
Description: Antiproliferative activity against human DLD-1 cells assessed as inhibition of cell growth measured after 72 hrs by CCK-8 method

[15] = tested on: HCT-116; assay: Induction of ROS generation in human HCT-116 cells assessed as increase in intracellular ROS level measured after 48 hrs DCFH-DA staining based analysis; type: functional, cell-based
[16] = tested on: HCT-116; assay: Antitumor activity against human HCT-116 cells xenografted in BALB/c nude mouse model assessed as reduction in tumor volume at 2.5 mg/kg,iv administered twice weekly and measured upto 21 days relative to control; type: functional; set-up: scale not given: the % may be the effect or the level left; settings: time <= 21 day
[17] = Cmax in Sprague-Dawley rat at 10 mg/kg, iv by LC-MS/MS analysis; type: ADME, organism-based; settings: in vivo
[18] = tested on: SW-620; assay: cells; settings: Homo sapiens, SW-620, 72 h
Description: Antiproliferative activity against human SW-620 cells assessed as inhibition of cell growth measured after 72 hrs by CCK-8 method

[19] = biological target: T1, ATP-dependent Clp protease proteolytic subunit (Staphylococcus aureus (strain NCTC 8325)) (UniProt Q2G036); assay: Agonist activity at Staphylococcus aureus ClpP using Suc-LY-AMC as substrate at 10 to 100 uM measured every 5 mins for 1 hr by fluorescence based analysis; settings: dose 10-100 µM
T1 sequence (whole entry): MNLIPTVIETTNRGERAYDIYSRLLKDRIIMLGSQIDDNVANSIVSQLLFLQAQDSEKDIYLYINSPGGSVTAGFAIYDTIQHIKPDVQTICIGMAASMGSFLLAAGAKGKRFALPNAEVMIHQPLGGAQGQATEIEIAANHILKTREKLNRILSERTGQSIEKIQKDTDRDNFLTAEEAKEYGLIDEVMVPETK

[20] = tested on: HCT-116; assay: Induction of cell cycle arrest in human HCT-116 cells assessed as increase in number of cells at G2 phase at high dose measured after 48 hrs by PI staining based flow cytometry analysis; type: functional
[21] = MRT (0 to 24 hrs) in Sprague-Dawley rat at 10 mg/kg, iv by LC-MS/MS analysis; type: ADME, organism-based; settings: in vivo
[22] = tested on: SW480; assay: cells; settings: Homo sapiens, SW480, 72 h
Description: Antiproliferative activity against human SW480 cells assessed as inhibition of cell growth measured after 72 hrs by CCK-8 method

[23] = Toxicity in BALB/c nude mouse assessed as effect on heart at 1.25 to 5 mg/kg, iv administered twice weekly and measured after 21 days by H and E staining based analysis; type: organism-based; settings: in vivo, 504 h, dose 1.25-5 mg/kg, time 21 day
[24] = tested on: Staphylococcus aureus; assay: Antibacterial activity against Staphylococcus aureus ATCC25923 assessed as reduction in bacterial growth; type: functional
[25] = tested on: HCT-116; assay: Induction of apoptosis in human HCT-116 cells assessed as reduction in SDHB expression measured after 48 hrs by Western blot analysis; type: functional, cell-based; settings: dose 0.5-2 µM
[26] = tested on: Staphylococcus aureus; assay: Antibacterial activity against Staphylococcus aureus ATCC33591 assessed as reduction in bacterial growth; type: functional
[27] = Metabolic stability in human liver microsomes assessed as half life at 1 uM measured upto 60 mins in presence of NADPH regenerating system by LC-MS/MS analysis; type: ADME, Microsome
[28] = Antiproliferative activity against human HCoEpiC cells assessed as inhibition of cell growth measured after 72 hrs by CCK-8 method; type: toxicity, cell-based
[29] = biological target: ATP-dependent Clp protease proteolytic subunit (Escherichia coli (strain K12)) (UniProt P0A6G7); assay: Agonist activity at Escherichia coli ClpP using Suc-LY-AMC as substrate at 10 to 100 uM measured every 5 mins for 1 hr by fluorescence based analysis; settings: dose 10-100 µM
Sequence of ATP-dependent Clp protease proteolytic subunit (Escherichia coli (strain K12)) (P0A6G7 whole entry): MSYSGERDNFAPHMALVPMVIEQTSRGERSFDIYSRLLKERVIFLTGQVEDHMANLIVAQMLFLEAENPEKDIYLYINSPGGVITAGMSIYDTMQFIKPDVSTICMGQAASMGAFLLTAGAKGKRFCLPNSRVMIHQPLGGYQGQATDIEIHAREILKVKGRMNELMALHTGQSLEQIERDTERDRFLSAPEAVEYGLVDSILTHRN

[30] = Cmax in Sprague-Dawley rat at 10 mg/kg, po by LC-MS/MS analysis; type: ADME, organism-based; settings: in vivo
[31] = tested on: HCT-116; assay: Antitumor activity against human HCT-116 cells xenografted in BALB/c nude mouse model assessed as decrease in Bcl-2 expression at upto 5 mg/kg, iv administered twice weekly by Western blot analysis; type: functional, organism-based
[32] = tested on: HCT-116; assay: Upregulation of DDIT4 expression in human HCT-116 cells measured after 48 hrs by Western blot analysis; type: functional, cell-based
[33] = tested on: HCT-116; assay: Effect on JUN expression in ClpP knockdown human HCT-116 cells at 2 uM measured after 48 hrs by Western blot analysis; type: functional, cell-based
[34] = Acute toxicity in BALB/c mouse assessed as effect on kidney at 50 mg/kg, iv administered as single dose measured upto 14 days by H and E staining based analysis; type: organism-based; settings: in vivo, 336 h, time < 14 day
[35] = Clearance in Sprague-Dawley rat at 10 mg/kg, iv by LC-MS/MS analysis; type: ADME, organism-based; settings: in vivo
[36] = Acute toxicity in BALB/c mouse assessed as increase in body weight at 5 mg/kg, iv measured upto 21 days relative to control; type: organism-based; settings: in vivo, 504 h, time < 21 day
[37] = tested on: HCT-116; assay: Upregulation of ID1 expression in human HCT-116 cells measured after 48 hrs by Western blot analysis; type: functional, cell-based
[38] = tested on: HCT-116; assay: Upregulation of DDIT3 expression in human HCT-116 cells measured after 48 hrs by Western blot analysis; type: functional, cell-based

## N#Cc1cccc(CN2CCC=C(C(=O)NCc3ccc(C(F)(F)F)cc3)C2)c1
[1]
  CLint scaled at 1 µM: 206 mL/min/kg
[2]
  Activity: Active
[3]
  Activity: Non-Toxic
[4]
  Activity: inactive
[5]
  Activity: Non-Toxic
[6]
  Activity: Non-Toxic
[7]
  Activity: 55.1%
[8]
  half-life: 4.7 h
[9]
  CLint scaled at 1 µM: 305 mL/min/kg
[10]
  Activity: Active
[11]
  MRT last: 6.7 h
[12]
  Activity: 60%
[13]
  half-life at 1 µM: 0.3 h
[14]
  pIC50: 5.51
[15]
  Activity: Active
[16]
  Activity: 70%
[17]
  Cmax: 966 ng/mL
[18]
  pIC50: 5.82
[19]
  Activity: inactive
[20]
  Activity: ~40%
[21]
  MRT last: 3.1 h
[22]
  pIC50: 5.27
[23]
  Activity: Non-Toxic
[24]
  MIC: > 128 µg/mL
[25]
  Activity: Dose-Dependent Effect
[26]
  MIC: > 128 µg/mL
[27]
  half-life at 1 µM: 6.1 min
[28]
  IC50 at 72 h: 75.2 µM
[29]
  Activity: inactive
[30]
  Cmax: 137 ng/mL
[31]
  Activity: Active
[32]
  Activity: Active
[33]
  Activity: inactive
[34]
  Activity: Non-Toxic
[35]
  CL: 2.172 mL/min/kg
[36]
  Activity: Toxic
[37]
  Activity: Active
[38]
  Activity: Active
